The experiment concerns Abeta 1-37, Abeta 1-38, Abeta 1-40 and Abeta 1-42 in cerebrospinal fluid (CSF). In words: Pharmacology in the beagle dog, beta-amyloid profile in CSF (Test Example 18-2). It counts as in vivo. The following applies: for % Decrease in Abeta 1-42 at 24 h^(a) or 25 h^(b) post dosing compared to own baseline: 24 h or 25 h. The method, then: Test compounds were tested to evaluate the effect on the beta-amyloid profile in cerebrospinal fluid (CSF) of dogs after a single dose, in combination with pharmacokinetic (PK) follow up and limited safety evaluation.
For each of compound II-6 or II-10, four beagle dogs (2 males, 2 females) were dosed with vehicle (1 mL/kg of an aqueous solution of 20% cyclodextrin) and 12 beagle dogs (2 males and 2 females per dosage group) were dosed with test compounds as follows:
In the case of compounds II-2, II-3 and II-18, two beagle dogs (1 male, 1 female) were dosed with vehicle (1 mL/kg of an aqueous solution of 20% cyclodextrin) and 4 beagle dogs (2 males and 2 females) were dosed with test compound (II-2, II-3, or II-18) at the doses indicated in the following Table in an aqueous 20% cyclodextrin solution with a concentration in mg/mL identical to the dose given in mg/kg) on an empty stomach.
CSF was taken in conscious animals directly from the lateral ventricle via a cannula which was screwed in the skull and covered with subcutaneous tissue and skin, before and at 4, 8, 25 and 49 hours after dosing. Eight hours after dosing the animals got access to their regular meal for 30 minutes. Blood was taken for PK follow up (0.5, 1, 2, 4, 8, 25 and 49 hours) and serum samples for biochemistry were taken before and at 8 and 25 h after dosing. The CSF samples were used for measurement of Abeta 1-37, Abeta 1-38, Abeta 1-40 and Abeta 1-42.

The record followed here is patent US20210261561A1, “BICYCLIC HETEROCYCLE DERIVATIVES HAVING SELECTIVE BACE1 INHIBITORY ACTIVITY” (SHIONOGI & CO., LTD., priority 2018, published 2021).

For the compound `C[C@@]1(S(C)(=O)=O)CC[C@@](CF)(c2cc(NC(=O)c3cc4c(cn3)OC(F)(F)O4)ccc2F)N=C1N` [II-6], where the note is “single dose 0.16 mg/kg”, the “% Decrease in Abeta 1-42 at 8 h post dosing compared to own baseline” value is given as 51% and the “% Decrease in Abeta 1-42 at 24 h^(a) or 25 h^(b) post dosing compared to own baseline” value is on record as 31%. For the same compound, for the setting “single dose 0.31 mg/kg”, the “% Decrease in Abeta 1-42 at 8 h post dosing compared to own baseline” value was 69% and the “% Decrease in Abeta 1-42 at 49 h post dosing compared to own baseline” value was found to be 22%. For the setting “single dose 0.63 mg/kg”, the “% Decrease in Abeta 1-42 at 8 h post dosing compared to own baseline” value is reported as 68% and the “% Decrease in Abeta 1-42 at 24 h^(a) or 25 h^(b) post dosing compared to own baseline” value was determined as 62%.

Take `CCS(=O)(=O)[C@]1(C)CC[C@@](CF)(c2cc(NC(=O)c3cc4c(cn3)OC(F)(F)O4)ccc2F)N=C1N` [II-20]: the “% Decrease in Abeta 1-42 at 8 h post dosing compared to own baseline” value was 51% (single dose 0.16 mg/kg), 72% (single dose 0.63 mg/kg), 73% (single dose 1 mg/kg) and 86% (single dose 3.75 mg/kg). The “% Decrease in Abeta 1-42 at 24 h^(a) or 25 h^(b) post dosing compared to own baseline” value by setting is: (single dose 0.16 mg/kg) 30%; (single dose 0.63 mg/kg) 70%; (single dose 1 mg/kg) 76%; (single dose 3.75 mg/kg) 91%. Also, the “% Decrease in Abeta 1-42 at 49 h post dosing compared to own baseline” value is 25% (single dose 0.16 mg/kg), 52% (single dose 0.63 mg/kg), 58% (single dose 1 mg/kg) and 85% (single dose 3.75 mg/kg).

For `C[C@@]1(S(C)(=O)=O)CC[C@@](CF)(c2cc(NC(=O)c3cc4c(cn3)OC(F)(F)CO4)ccc2F)N=C1N` [II-10], the “% Decrease in Abeta 1-42 at 8 h post dosing compared to own baseline” value (single dose 0.16 mg/kg) worked out at 37%, the “% Decrease in Abeta 1-42 at 8 h post dosing compared to own baseline” value (single dose 0.63 mg/kg) is listed as 68%, the “% Decrease in Abeta 1-42 at 8 h post dosing compared to own baseline” value (single dose 1.25 mg/kg) is recorded as 73% and the “% Decrease in Abeta 1-42 at 8 h post dosing compared to own baseline” value (single dose 2.5 mg/kg) worked out at 76%. Moreover, the “% Decrease in Abeta 1-42 at 24 h^(a) or 25 h^(b) post dosing compared to own baseline” value (single dose 0.63 mg/kg) came out at 21%, the “% Decrease in Abeta 1-42 at 24 h^(a) or 25 h^(b) post dosing compared to own baseline” value (single dose 1.25 mg/kg) is given as 27% and the “% Decrease in Abeta 1-42 at 24 h^(a) or 25 h^(b) post dosing compared to own baseline” value (single dose 2.5 mg/kg) is reported as 28%.

On to `[2H]C1([2H])Oc2cnc(C(=O)Nc3ccc(F)c([C@]4(CF)CC[C@@](C)(S(C)(=O)=O)C(N)=N4)c3)cc2OC1([2H])[2H]` [II-3], for which the “% Decrease in Abeta 1-42 at 8 h post dosing compared to own baseline” value (single dose 5 mg/kg) amounted to 61%.

On to `[2H]C1([2H])Oc2cnc(C(=O)Nc3ccc(F)c([C@]4(CF)CC[C@@](C)(S(C)(=O)=O)C(N)=N4)c3)cc2OC1([2H])[2H]` [II-2], for which the “% Decrease in Abeta 1-42 at 8 h post dosing compared to own baseline” value (single dose 0.63 mg/kg) is 33%.
